This passage reports IC50 results from ChEMBL document CHEMBL1134697, “Synthesis and antiproliferative activity of epoxy and bromo compounds derived from estrone” (Bioorg Med Chem Lett, 2001).

One assay relates to HeLa. Nature of the assay: Antiproliferative activity was determined after 48 hr exposure to human cervix carcinoma HeLa cells. The format is functional, cell-based.
Assay [1] has as its system K562. Nature of the assay: Antiproliferative activity was determined after 48 hr exposure to human myelogenous leukemia K562 cells. In kind it is functional, cell-based. As to conditions: K562, 48 h.
The nature of assay [2]: Antiproliferative activity was determined after 48 hr exposure to human melanoma Fem-X cell. In kind it is functional, cell-based.
Assay [3] can be described thus: Antiproliferative activity was determined after 72 hr exposure to human melanoma Fem-x cells. The format is functional, cell-based.
Assay [4] is described as follows: Antiproliferative activity was determined after 72 hr exposure to normal human peripheral blood mononuclear cells (PBMC) in the absence of 5 ug/mL Phytohemagglutinine. The format is functional.
Assay [5] in a line: Antiproliferative activity was determined after 72 hr exposure to normal human peripheral blood mononuclear cells (PBMC) in the presence of 5 ug/mL Phytohemagglutinine. In kind it is functional.
The subject of assay [6] is K562. Briefly: Antiproliferative activity was determined after 72 hr exposure to human myelogenous leukemia K562 cells. In kind it is functional, cell-based. The conditions noted are these: K562, 72 h.
For the next assay, the system named is P388. Nature of the assay: Concentration required for antiproliferative activity against P388 cell survival by 50%. In kind it is functional, cell-based. The conditions noted are these: Mus musculus.

The IC50 is the concentration that inhibits the measured activity by half. In the case of `C[C@]12CCC3C(CC[C@]45O[C@H]4[C@@H](O)C=C[C@]35O)C1CCC2O` (some centres undefined), the IC50 (in the assay on HeLa; with K562 [1]; in assay [2]) was more than 270 µM each time.
With `C[C@]12CCC3C(CCC4=CC(=O)C=C[C@@]43O)C1CCC2=O` (some centres undefined), the IC50 (in the assay on HeLa; with K562 [1]; in assay [2]) was more than 100 µM each time.
For `C[C@]12CCC3[C@@H](CCC4=C(Br)C(=O)C=C[C@@]43O)[C@@H]1CCC2=O` (some centres undefined), the IC50 with HeLa is 6.17 µM; in assay [3], 4.6 µM; in assay [4], 12.3 µM; in the assay on K562 [1], 13.7 µM; in assay [5], 5.2 µM; in assay [2] it was 14.5 µM. Moreover, in the assay with K562 [6], the IC50 turned out to be 5.9 µM.
Take `C[C@]12CCC3[C@@H](CC[C@]45O[C@H]4C(=O)C(Br)=C[C@]35O)[C@@H]1CCC2=O` (some centres undefined): the IC50 came to 2.5 µM with HeLa; 1 µM in assay [3]; 2.9 µM in assay [4]; 1.2 µM in the assay with K562 [1]; 1.3 µM in assay [5]; 6 µM in assay [2]. In the assay with K562 [6], this molecule came in with an IC50 of 0.7 µM.
Consider `C[C@]12CC[C@H]3[C@@H](CC[C@]45O[C@H]4C(=O)C=C[C@]35O)[C@@H]1CCC2=O`, for which the IC50 was 5.73 µM with HeLa, 6.22 µM in the assay with K562 [1] and 7.1 µM in assay [2].
As to `O=C1C(Br)=C[C@H](O)[C@H]2O[C@@H]12`, 0.049 µM corresponded to half-maximal inhibition with P388 (IC50).
